Measurements reported in patent US8552029B2, “Quinoline derivatives and uses of the same” (National Taipei University of Technology, priority 2011, dated 2013).

Row | melting point [°C] | Structure (SMILES)
1 | 314 to 316 | Nc1ccc(-n2cc(C(=O)O)c(=O)c3cc(F)c(N/N=C/c4ccccc4)cc32)cc1 [Compound 7, 1-(4-aminophenyl)-7-(2-benzylidenehydrazinyl)-6-fluoro-4-oxo-1,4-dihydroquinoline-3-carboxylic acid]
2 | 308 to 310 | Nc1ccc(-n2cc(C(=O)O)c(=O)c3cc(F)c(N/N=C/c4ccc(F)cc4)cc32)cc1 [Compound 8, 1-(4-aminophenyl)-6-fluoro-7-[2-(4-fluorobenzylidene)hydrazinyl]-4-oxo-1,4-dihydroquinoline-3-carboxylic acid]
3 | 307 to 309 | COc1ccc(/C=N/Nc2cc3c(cc2F)c(=O)c(C(=O)O)cn3-c2ccc(N)cc2)cc1 [Compound 9, 1-(4-aminophenyl)-6-fluoro-7-(2-(4-methoxybenzylidene)hydrazinyl)-4-oxo-1,4-dihydroquinoline-3-carboxylic acid]
4 | 321 to 322 | COc1ccc(/C=N/Nc2cc3c(cc2F)c(=O)c(C(=O)O)cn3-c2ccc(N)cc2F)cc1 [Compound 10, 1-(4-amino-2-fluorophenyl)-6-fluoro-7-[2-(4-methoxybenzylidene)hydrazinyl]-4-oxo-1,4-dihydroquinoline-3-carboxylic acid]
5 | 176 to 178 | Nc1ccc(-n2cc(C(=O)O)c(=O)c3cc(F)c(N/N=C/c4ccncc4)cc32)c(F)c1 [Compound 11, 1-(4-amino-2-fluorophenyl)-6-fluoro-4-oxo-7-[2-(pyridin-4-ylmethylene)hydrazinyl]-1,4-dihydroquinoline-3-carboxylic acid]
